Laboratory results from patent US10168338B2, “Methods of identifying modulators of sestrin-gator-2 interaction for modulating mTORC1 activity” (Whitehead Institute for Biomedical Research, priority 2014, dated 2019).

How the values were obtained:
Sestrin2-GATOR2 complex = biological target: T1, Sestrin2-GATOR2 complex (Homo sapiens, UniProt P58004); test: Amino acids added to ice-cold detergent lysates of amino acid-starved HEK-293T cells, FLAG immunoprecipitation; assay type: binding; conditions: ice-cold detergent lysates of HEK-293T cells starved for all amino acids
T1 construct: To isolate the FLAG-WDR24/endogenous-Sestrin2 complex; endogenous in cells; host or cells: HEK-293T cells stably expressing FLAG-WDR24; Sestrin2 and the other GATOR2 subunits are endogenous
T1 sequence (P58004 1-480): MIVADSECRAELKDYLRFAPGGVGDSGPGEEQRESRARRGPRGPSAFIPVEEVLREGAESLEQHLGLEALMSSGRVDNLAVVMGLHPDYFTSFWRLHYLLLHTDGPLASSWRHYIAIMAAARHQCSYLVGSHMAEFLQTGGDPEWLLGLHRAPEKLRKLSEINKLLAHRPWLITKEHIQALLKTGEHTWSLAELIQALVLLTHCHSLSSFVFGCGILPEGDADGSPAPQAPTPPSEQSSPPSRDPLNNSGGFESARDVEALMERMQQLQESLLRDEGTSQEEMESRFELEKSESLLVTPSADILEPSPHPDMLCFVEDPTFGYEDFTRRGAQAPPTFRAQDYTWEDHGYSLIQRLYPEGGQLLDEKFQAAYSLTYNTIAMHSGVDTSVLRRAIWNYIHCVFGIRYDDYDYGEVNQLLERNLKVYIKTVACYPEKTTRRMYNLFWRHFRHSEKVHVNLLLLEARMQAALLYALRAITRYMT
Description: (§1) HEK-293T cells stably expressing the FLAG-tagged GATOR2 component WDR24 were starved of all amino acids for 50 minutes. Individual amino acids were added pre-lysis to the cell culture media or post-lysis to cell lysates prior to FLAG immunoprecipitation.
We next tested if leucine acts directly on the Sestrin2-GATOR2 complex.

[1] = biological target: T2, Sestrin-GATOR2 interaction (Homo sapiens, UniProt P58004); test: Effect of specific amino acids on Sestrin-GATOR2 interaction (FLAG-WDR24 immunoprecipitation, immunoblot); assay type: cell-based; conditions: HEK-293T stably expressing FLAG-WDR24; starvation/restimulation, pre- or post-lysis addition, washes of immunoprecipitates
T2 construct: To isolate the FLAG-WDR24/endogenous-Sestrin2 complex; endogenous in cells; host or cells: HEK-293T cells stably expressing FLAG-WDR24; Sestrin2 and the other GATOR2 subunits are endogenous
T2 sequence (P58004 1-480): T1 sequence (P58004 1-480)
Description: In order to further explore if specific amino acid levels affected the Sestrin-GATOR2 interaction, HEK-293T cells stably expressing the FLAG-tagged GATOR2 component WDR24 (and FLAG-tagged metap2 as a control) were starved of either all amino acids (ALL); only leucine, arginine, and lysine (LRK); only leucine (L); only arginine (R); or only lysine (K) for 50 minutes, or starved for 50 minutes and restimulated for 10 minutes with the indicated amino acids.
as §1
Finally, HEK-293T cells stably expressing the FLAG-tagged GATOR2 component WDR24 were starved of all amino acids for 50 minutes. Immunoprecipitates were subjected to washes containing the indicated amounts of leucine or arginine and analyzed along with cell lysates by immunoblotting for the indicated proteins as shown in FIG. 8C.

mTORC1 = mTORC1 signaling in HEK-293T cells (S6K1 phosphorylation immunoblot); assay type: cell-based, human; conditions: Homo sapiens; HEK-293T starved of leucine 50 minutes, restimulated 10 minutes; read-out: half-maximal effect on mTORC1 activity in cells
Description: Immunoprecipitated proteins were denatured by the addition of 50 μl of sample buffer and boiling for 5 minutes as described (Kim et al., 2002), resolved by 8%-16% SDS-PAGE, and analyzed by immunoblotting using the appropriate antibody (antibodies to phospho-T389 S6K1, S6K1, Sestrin2, mTOR, Mios and FLAG all obtained from Cell Signaling Technology; antibodies to WDR24 and WDR59 were generously provided by Jianxin Xie at Cell Signaling Technology).
In order to determine the effect of amino acids on the GATOR2-Sestrin interaction, transfected cells were incubated in amino acid free RPMI for 50 minutes and then stimulated with amino acids for 10 minutes. For glucose starvation, cells were incubated in RPMI media lacking glucose but containing amino acids and dialyzed serum for 50 minutes, followed by a 10 minute restimulation with 5 mM D-Glucose. For insulin deprivation, cells were incubated in RPMI without serum for 50 minutes and restimulated with 1 μg/ml insulin for 10 minutes. Finally, when Torin1 or Rapamycin was used, cells were incubated with 250 nM of each throughout the starvation and restimulation period.

Sestrin2 = biological target: T3, Sestrin2 (Homo sapiens, UniProt P58004); test: [3H]-labeled amino acid binding to FLAG-Sestrin2 immunoprecipitated from HEK-293T cells
T3 construct: expressed in transfected cells; host or cells: HEK-293T, transient transfection of a pRK5-based cDNA plasmid, anti-FLAG immunoprecipitation
T3 sequence (P58004 1-480): T1 sequence (P58004 1-480)
Description: Four million HEK-293T cells were plated in a 15 cm plate four days prior to the experiment. Each plate yielded the protein for one sample. Forty-eight hours after plating, the cells were transfected via the polyethylenimine method (O. Boussif et al., PNAS (USA), 92:7297-7301 (1995)) with the pRK5-based cDNA expression plasmids indicated in the figures in the following amounts: 5 μgFLAG-Sestrin2; 12 μg of the negative control Rap2A; 5 μg WDR24; 2 μg WDR24 with 4 μg each of HA-Seh1L, HA-Sec13, HA-Mios, and HA-WDR59; 12 […] (CG11299-PD); 12 μgFLAG-Sestrin1.1; 12 μg FLAG-Sestrin1.2; 12 μg FLAG-Sestrin3; 12 μg FLAG-Sestrin2 mutants (L261A, E451A, S190A) and up to 20 μg total DNA with empty-PRK5. Forty-eight hours after transfection cells were lysed as described in Example 1. If multiple samples of the same type were represented in the experiment, the cell lysates were combined, mixed, and evenly distributed amongst the relevant tubes, to ensure equal protein amounts across samples of the same type.
Anti-FLAG immunoprecipitates were prepared as previously described, with the exception that, prior to incubation with lysates, the beads were blocked by rotating in 1 μg/μl bovine serum albumin (BSA) for 20 minutes at 4° C. and subsequently washed twice in lysis buffer. Thirty μl of the 50/50 slurry of beads in lysis buffer was added to each of the clarified cell lysates and incubated as previously described in Example 1.
For the binding assays, two tubes at a time were washed as previously indicated for immunoprecipitations. All the liquid was subsequently aspirated and a 15 μl aliquot of proteins bound to the beads was incubated for one hour on ice in cytosolic buffer (0.1% Triton, 40 mM HEPES pH 7.4, 10 mM NaCl, 150 mM KCl, 2.5 mM MgCl2) with the appropriate amount of [^3H]-labeled amino acids and unlabeled amino acids. Tubes were flicked every five minutes. At the end of one hour, the beads were briefly spun down, aspirated dry, and rapidly washed three times with binding wash buffer (0.1% Triton, 40 mM HEPES pH 7.4, 150 mM NaCl). The beads were aspirated dry again and resuspended in 85 μl of binding wash buffer. With a cut tip, each sample was mixed well and three 10 μl aliquots were separately quantified using a TriCarb® scintillation counter (PerkinElmer). This process was repeated in pairs for each sample, to ensure similar incubation and wash times for all samples analyzed across different experiments.
Amino acid affinities to Sestrin2 were determined by first normalizing the bound [^3H]-labeled amino acid concentrations across three separate binding assays performed with varying amounts of unlabeled amino acid competition. These values were plotted and fit to a hyperbolic equation ([…]) to estimate the IC50 value. Kd or Ki values were derived from the IC50 value using the equation: Kd or Ki=IC50/(1+([[^3H]Leucine])/Kd).

effect on Sestrin2-GATOR2 interaction when added to cell lysates (Sestrin2-GATOR2 complex): abrogated the interaction
disruption of the Sestrin-GATOR2 interaction [1]: disrupts the Sestrin-GATOR2 interaction
EC50 (mTORC1): 20 to 40 µM
binding of radiolabeled amino acid to Sestrin2 (Sestrin2; FLAG-Sestrin2 from HEK-293T, competed by excess unlabeled leucine): bound to Sestrin2
Kd (Sestrin2; competition with unlabeled leucine, 10 μM 3H-leucine, three experiments): 20 ± 5 µM
Structure (SMILES): CC(C)C[C@H](N)C(=O)O [leucine]
